Test results taken from BindingDB's records for doi:10.1021/jm0704898 (Georgetown University Medical Center, 2007).

Columns and labels:
Prothrombin = Prothrombin (Bos taurus, UniProt P00735); test: Enzyme Inhibition Assay; settings: pH 8.5; 22 °C
Method: (§1) The enzyme reaction was initiated by adding fluorescence peptide substrate to reaction mixture containing enzyme and test compounds. […] Hydrolysis rates were recorded in presence of six to seven different concentrations of inhibitor.

[1] = target: T1, Suppressor of tumorigenicity 14 protein (Homo sapiens, UniProt Q9Y5Y6); test: Enzyme Inhibition Assay; settings: pH 8.5; 22 °C
T1 sequence (Q9Y5Y6 whole entry): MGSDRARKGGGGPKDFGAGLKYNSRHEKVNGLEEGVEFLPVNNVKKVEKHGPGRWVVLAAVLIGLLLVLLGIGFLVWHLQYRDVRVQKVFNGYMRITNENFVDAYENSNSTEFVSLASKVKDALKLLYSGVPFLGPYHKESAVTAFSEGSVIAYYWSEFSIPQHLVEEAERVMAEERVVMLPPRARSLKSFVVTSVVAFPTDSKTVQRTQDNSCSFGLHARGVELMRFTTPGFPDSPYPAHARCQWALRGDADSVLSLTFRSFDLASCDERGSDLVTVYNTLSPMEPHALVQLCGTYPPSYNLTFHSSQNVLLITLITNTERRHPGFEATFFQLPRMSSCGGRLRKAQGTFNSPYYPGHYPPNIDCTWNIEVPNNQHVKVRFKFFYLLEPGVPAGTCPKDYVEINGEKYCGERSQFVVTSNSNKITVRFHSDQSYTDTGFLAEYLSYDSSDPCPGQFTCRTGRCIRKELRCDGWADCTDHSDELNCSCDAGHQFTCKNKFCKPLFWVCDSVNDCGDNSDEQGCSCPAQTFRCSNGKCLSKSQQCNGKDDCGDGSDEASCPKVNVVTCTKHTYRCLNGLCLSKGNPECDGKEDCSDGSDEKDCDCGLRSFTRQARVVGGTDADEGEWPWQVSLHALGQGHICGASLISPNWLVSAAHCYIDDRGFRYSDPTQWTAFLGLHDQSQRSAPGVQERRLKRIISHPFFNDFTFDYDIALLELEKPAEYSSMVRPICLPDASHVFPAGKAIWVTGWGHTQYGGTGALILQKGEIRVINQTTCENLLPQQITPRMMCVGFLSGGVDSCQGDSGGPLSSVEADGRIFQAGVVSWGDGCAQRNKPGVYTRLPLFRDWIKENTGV
Method: as §1

Row | Ki (Prothrombin) [µM] | Ki [1] [µM] | Compound
1 | 0.86 | 4.75 | CC[C@H](C)[C@@H]1NC(=O)[C@@H]2CCCN2C(=O)[C@@H]2CCCN2C(=O)[C@H]([C@@H](C)CC)NC(=O)[C@H](CO)NC(=O)[C@H](CCCNC(=N)N)NC(=O)[C@H]([C@@H](C)O)NC(=O)[C@@H]2CSSC[C@H](NC1=O)C(=O)N[C@@H](Cc1ccccc1)C(=O)N1CCC[C@H]1C(=O)N[C@@H](CC(=O)O)C(=O)NCC(=O)N[C@@H](CCCNC(=N)N)C(=O)N2 [2-[(1R,4S,7S,13S,19S,22S,25S,28S,31R,34S,40S,43S,49S)-49-benzyl-4,19-bis[(2S)-butan-2-yl]-25,34-bis(3-carbamimidamidopropyl)-28-[(1R)-1-hydroxyethyl]-22-(hydroxymethyl)-3,6,12,18,21,24,27,30,33,36,39,42,48,51-tetradecaoxo-53,54-dithia-2,5,11,17,20,23,26,29,32,35,38,41,47,50-tetradecaazapentacyclo[29.20.4.0^{7,11}.0^{13,17}.0^{43,47}]pentapentacontan-40-yl]acetic acid]
2 | 164 | 90 | CC[C@H](C)[C@@H]1NC(=O)[C@@H]2CCCN2C(=O)[C@@H]2CCCN2C(=O)[C@H]([C@@H](C)CC)NC(=O)[C@H](CO)NC(=O)[C@H](CCCCN)NC(=O)[C@H]([C@@H](C)O)NC(=O)[C@@H]2CSSC[C@H](NC1=O)C(=O)N[C@@H](Cc1ccccc1)C(=O)N1CCC[C@H]1C(=O)N[C@@H](CC(=O)O)C(=O)NCC(=O)N[C@@H](Cc1ccc(N=C(N)N)cc1)C(=O)N2 [2-[(1R,4S,7S,13S,19S,22S,25S,28S,31R,34S,40S,43S,49S)-25-(4-aminobutyl)-49-benzyl-4,19-bis[(2S)-butan-2-yl]-34-[(4-carbamimidamidophenyl)methyl]-28-[(1R)-1-hydroxyethyl]-22-(hydroxymethyl)-3,6,12,18,21,24,27,30,33,36,39,42,48,51-tetradecaoxo-53,54-dithia-2,5,11,17,20,23,26,29,32,35,38,41,47,50-tetradecaazapentacyclo[29.20.4.0^{7,11}.0^{13,17}.0^{43,47}]pentapentacontan-40-yl]acetic acid]
3 | 16.3 | 0.45 | CC[C@H](C)[C@@H]1NC(=O)[C@@H]2CCCN2C(=O)[C@@H]2CCCN2C(=O)[C@H]([C@@H](C)CC)NC(=O)[C@H](CO)NC(=O)[C@H](CCCCN)NC(=O)[C@H]([C@@H](C)O)NC(=O)[C@@H]2CSSC[C@H](NC1=O)C(=O)N[C@@H](Cc1ccc3ccccc3c1)C(=O)N1CCC[C@H]1C(=O)N[C@@H](CC(=O)O)C(=O)NCC(=O)N[C@@H](CCCN=C(N)N)C(=O)N2 [2-[(1R,4S,7S,13S,19S,22S,25S,28S,31R,34S,40S,43S,49S)-25-(4-aminobutyl)-4,19-bis[(2S)-butan-2-yl]-34-(3-carbamimidamidopropyl)-28-[(1R)-1-hydroxyethyl]-22-(hydroxymethyl)-49-(naphthalen-2-ylmethyl)-3,6,12,18,21,24,27,30,33,36,39,42,48,51-tetradecaoxo-53,54-dithia-2,5,11,17,20,23,26,29,32,35,38,41,47,50-tetradecaazapentacyclo[29.20.4.0^{7,11}.0^{13,17}.0^{43,47}]pentapentacontan-40-yl]acetic acid]
4 | 827 | 22.5 | CC[C@H](C)[C@@H]1NC(=O)[C@@H]2CCCN2C(=O)[C@@H]2CCCN2C(=O)[C@H]([C@@H](C)CC)NC(=O)[C@H](CO)NC(=O)[C@H](CCCCN)NC(=O)[C@H]([C@@H](C)O)NC(=O)[C@@H]2CSSC[C@H](NC1=O)C(=O)N[C@@H](Cc1ccccc1)C(=O)N1CCC[C@H]1C(=O)N[C@@H](CC(=O)O)C(=O)NCC(=O)N[C@@H](CCCNC(N)=O)C(=O)N2 [2-[(1R,4S,7S,13S,19S,22S,25S,28S,31R,34S,40S,43S,49S)-25-(4-aminobutyl)-49-benzyl-4,19-bis[(2S)-butan-2-yl]-34-[3-(carbamoylamino)propyl]-28-[(1R)-1-hydroxyethyl]-22-(hydroxymethyl)-3,6,12,18,21,24,27,30,33,36,39,42,48,51-tetradecaoxo-53,54-dithia-2,5,11,17,20,23,26,29,32,35,38,41,47,50-tetradecaazapentacyclo[29.20.4.0^{7,11}.0^{13,17}.0^{43,47}]pentapentacontan-40-yl]acetic acid]
5 | 40.4 | 107 | CC[C@H](C)[C@@H]1NC(=O)[C@@H]2CCCN2C(=O)[C@@H]2CCCN2C(=O)[C@H]([C@@H](C)CC)NC(=O)[C@H](CO)NC(=O)[C@H](CCCCN)NC(=O)[C@H]([C@@H](C)O)NC(=O)[C@H](CO)NC(=O)[C@H](CCCN=C(N)N)NC(=O)CNC(=O)[C@H](CC(=O)O)NC(=O)[C@@H]2CCCN2C(=O)[C@H](Cc2ccccc2)NC(=O)[C@H](CO)NC1=O [2-[(1S,7S,10S,13S,16S,22S,25S,31S,34S,37S,40S,43S,46S)-40-(4-aminobutyl)-16-benzyl-10,46-bis[(2S)-butan-2-yl]-31-(3-carbamimidamidopropyl)-37-[(1R)-1-hydroxyethyl]-13,34,43-tris(hydroxymethyl)-2,8,11,14,17,23,26,29,32,35,38,41,44,47-tetradecaoxo-3,9,12,15,18,24,27,30,33,36,39,42,45,48-tetradecaazatetracyclo[46.3.0.0^{3,7}.0^{18,22}]henpentacontan-25-yl]acetic acid]
6 |  | 0.1 | CC[C@H](C)[C@@H]1NC(=O)[C@@H]2CCCN2C(=O)[C@@H]2CCCN2C(=O)[C@H]([C@@H](C)CC)NC(=O)[C@H](CO)NC(=O)[C@H](CCCCN)NC(=O)[C@H]([C@@H](C)O)NC(=O)[C@@H]2CSSC[C@H](NC1=O)C(=O)N[C@@H](Cc1ccccc1)C(=O)N1CCC[C@H]1C(=O)N[C@@H](CC(=O)O)C(=O)NCC(=O)N[C@@H](CCCNC(=N)N)C(=O)N2 [2-[(1R,4S,7S,13S,19S,22S,25S,28S,31R,34S,40S,43S,49S)-25-(4-aminobutyl)-49-benzyl-4,19-bis[(2S)-butan-2-yl]-34-(3-carbamimidamidopropyl)-28-[(1R)-1-hydroxyethyl]-22-(hydroxymethyl)-3,6,12,18,21,24,27,30,33,36,39,42,48,51-tetradecaoxo-53,54-dithia-2,5,11,17,20,23,26,29,32,35,38,41,47,50-tetradecaazapentacyclo[29.20.4.0^{7,11}.0^{13,17}.0^{43,47}]pentapentacontan-40-yl]acetic acid]
7 |  | 0.38 | CC[C@H](C)[C@@H]1NC(=O)[C@@H]2CCCN2C(=O)[C@@H]2CCCN2C(=O)[C@H]([C@@H](C)CC)NC(=O)[C@H](CO)NC(=O)[C@H](CCCCN)NC(=O)[C@H]([C@@H](C)O)NC(=O)[C@@H]2CCSSC[C@H](NC1=O)C(=O)N[C@@H](Cc1ccccc1)C(=O)N1CCC[C@H]1C(=O)N[C@@H](CC(=O)O)C(=O)NCC(=O)N[C@@H](CCCN=C(N)N)C(=O)N2 [2-[(1R,4S,7S,13S,19S,22S,25S,28S,31S,34S,40S,43S,49S)-25-(4-aminobutyl)-49-benzyl-4,19-bis[(2S)-butan-2-yl]-34-(3-carbamimidamidopropyl)-28-[(1R)-1-hydroxyethyl]-22-(hydroxymethyl)-3,6,12,18,21,24,27,30,33,36,39,42,48,51-tetradecaoxo-53,54-dithia-2,5,11,17,20,23,26,29,32,35,38,41,47,50-tetradecaazapentacyclo[29.20.5.0^{7,11}.0^{13,17}.0^{43,47}]hexapentacontan-40-yl]acetic acid]
8 |  | > 250 | CC[C@H](C)[C@@H]1NC(=O)[C@@H]2CCCN2C(=O)[C@@H]2CCCN2C(=O)[C@H]([C@@H](C)CC)NC(=O)[C@H](CO)NC(=O)[C@H](CCCN)NC(=O)[C@H]([C@@H](C)O)NC(=O)[C@@H]2CSSC[C@H](NC1=O)C(=O)N[C@@H](Cc1ccccc1)C(=O)N1CCC[C@H]1C(=O)N[C@@H](CC(=O)O)C(=O)NCC(=O)N[C@@H](CCCN=C(N)N)C(=O)N2 [2-[(1R,4S,7S,13S,19S,22S,25S,28S,31R,34S,40S,43S,49S)-25-(3-aminopropyl)-49-benzyl-4,19-bis[(2S)-butan-2-yl]-34-(3-carbamimidamidopropyl)-28-[(1R)-1-hydroxyethyl]-22-(hydroxymethyl)-3,6,12,18,21,24,27,30,33,36,39,42,48,51-tetradecaoxo-53,54-dithia-2,5,11,17,20,23,26,29,32,35,38,41,47,50-tetradecaazapentacyclo[29.20.4.0^{7,11}.0^{13,17}.0^{43,47}]pentapentacontan-40-yl]acetic acid]
